Results taken from patent US6602852B1, “Basic peptides and pharmaceutical compositions containing same” (NST NeuroSurvival Technologies, Ltd., priority 1998, dated 2003).

Assays:
[1] = system: procoagulant activity of apoptotic HeLa S3 cells; conditions: 0.5 μM
Procedure: In the standard APTT test, clot formation is triggered by recalcification of plasma and addition of cephalin, i.e. negatively-charged phospholipids. Time until clot formation was measured as described in Example 3. […] In the modified APTT test, used in the present study, the addition of negatively-charged phospholipids (cephalin) was replaced by addition of apoptotic cells.
The cultured medium was discarded, and cells that were loosely attached to the growing surface, were collected in PBS, as described in Example 2B. These cells were washed and resuspended in TBS, and were regarded as advanced apoptotic cells. Equal numbers of apoptotic or control non-treated cells (10^5) in a volume of 100 μl, were mixed with 100 μl of 25 mM of CaCl2 and the clotting time was measured. […] Inhibition of their procoagulant activity by NST300 compounds was tested following pre-incubation of apoptotic cells with the different NST300 compounds.
Pre-incubation of equal numbers of apoptotic or control non-treated cells (10^5) with NST300 compounds was for 10 minutes at room temperature in a final volume of 100 μl. The compounds were used at concentration of 0.5 μM. The results can be seen in FIG. 5a.

apoptotic hepatocytes = assay type: in vivo
Procedure: All animals were killed 2 hr after administration of antibody followed by organ removal. Heart, lung and liver were collected.
Formalin fixed paraffin-embedded tissues were sectioned (5 μm) for staining with Hematoxylin/Eosin or other techniques.
Endogenous peroxidase activity was blocked by incubation with 3% H2O2.
After washing with PBS, staining was developed with 3,3-diaminobenzidine tetrahydrochloride (DAB), and counterstained with Hematoxylin.
Liver sections from different lobes were used for detection of stained apoptotic cells compared to normal cells.
The percentage of apoptotic cells in the fields was estimated by evaluating parallel sections stained with Hematoxylin/Eosin. Analysis was performed blindly, since the pathologist performing the histological evaluation was unaware of the assignment of mice to the treatment or control group.

Cardiolipin (CL) = system: Cardiolipin (CL)
Procedure: As control, wells were coated with ethanol only. The coated plates were washed 3 times with 100 ul of blocking buffer (PBS containing 0.3% gelatin (Sigma) and 1 mM EDTA) to block non specific binding. A 5 min incubation time was used between each wash. Normal plasma (Ilex, Italy, 84670-11) and Lupus plasma (either from Gradipore, Australia, LAHP-1, or from Biopool, Ventura, Calif.) were prepared according to the producer instruction. The plasma was diluted 1/10 in the blocking buffer and was added to the CL and ethanol coated wells. Binding of different NST 300 compounds to CL was performed by addition of serial dilutions of NST compounds (prepared in the plasma/blocking buffer solution) to the CL or ethanol coated wells. Following 3 hr incubation, the plates were washed twice with PBS/BSA buffer (0.4% bovine serum albumin (BSA) in PBS). For detection of anticardiolipin binding property of the tested plasma, the plates were incubated with a 1/10000 dilution of Peroxidase-conjugated affinity purified Goat anti-human IgG (Jackson Immunoresearch lab.) in PBS/BSA buffer for 1 hour. The plates were then washed 3 times with PBS/BSA buffer, and color reaction was developed by incubation with 100 ul of 0-phenylenediamine (OPD) dihydrochloride (Sigma p-7288) at a concentration of 0.4 mg/ml in 0.05 M phosphate citrate buffer, pH 5.0 supplemented, with 4 ul of 30% hydrogen peroxide (Aldrich) for 10 ml mixture. To detect the level of NST 300 compound that was bound to CL, parallel wells were incubated with streptavidin conugated to OPD (SA-OPD, Jackson Immunoresearch lab.), that specifically recognize the biotinylated NST 300 compound. The resulting colour changes were recorded at […] using a Bio Tek Elx800 Eliza reader.

[2] = system: HeLa cells undergoing dopamine-induced apoptosis; conditions: 750 nM
Procedure: HeLa cells were plated on tissue culture plates at a density of 3×10^6 cells/10 cm dish, and grown in a DMEM medium containing 10% FCS, as described in A. The cells were then incubated at 37° C. overnight, and then the medium was replaced with a medium containing 2% FCS and 500 μM of dopamine. 18 hours later, the medium was aspirated and discarded, and 10 ml of Phosphate Buffered Saline pH 7.4 (PBS) were added to the culture dish. The cells which were detached from the culture dish into the PBS were collected. These cells represent advanced apoptotic cells. The remaining cells which were attached to the culture dish were trypsinized by the addition of 2 ml of trypsin for 2 minutes at 37° C., followed by the addition of 10 ml of a medium containing 10% of FCS. The cells were then washed with PBS containing 2% Bovine Serum Albumin (BSA), and resuspended in TBS containing 2% BSA (TBS-BSA). These cells were regarded as early apoptotic cells. […] Only non-treated cells that were attached to the culture dish were used as control cells for the FACS analysis.
A set of 3 different cell types was taken:
The incubation with the NST300 compounds or control compound was performed in a final volume of 100 μl TBS-BSA, 5 μg/ml of propidium iodide (PI) and 750 nM of the tested compound or the control compound.
PI is a red fluorescent dye that stains DNA. […] Only cells that are in advanced apoptotic stages, or cells that have already died by apoptosis or necrosis will be permeable to PI and will be stained with the dye. […] The cells were then washed in 500 μl of cold TBS-BSA and centrifugated as before. The cells were then suspended in 100 μl of TBS-BSA containing streptavidin conjugated to fluorescein (FITC). […] Thereafter, the cells were washed three times in TBS-BSA and were taken for FACS analysis.
The FACS analysis was performed on a Beckton-Dickinson cell sorter, using lysis II software. Excitation was at 488 nm and the emission or FITC detection was at 535 nm and for PI detection at 585 nm.

[3] = system: Cardiolipin (CL) / anti β2GPI
Procedure: Antiphospholipid antibodies (APLA) comprise a family of antibodies characterized by their reactivity with negatively charged phospholipids in vitro. The target or many anti-phospholipid antibodies is either a complex between anionic phospholipid and the plasma protein Apolipoprotein-H (β2GPI) or the protein β2GPI alone bound to PS (McNeil et al., 1990, Matsurra et al., 1994). […] The assay was performed as essentially described above for anti CL ELISA with several modifications. […] Following washes, the wells were incubated for 1 hour with 1/10000 of Peroxidase-conjugated affinity purified rabbit anti goat IgG (Jackson Immunoresearch lab. PA) in PBS/BSA buffer. Washes and development were as described for anti CL ELISA. In the following experiments, CL coated wells were incubated with 1/500 dilution or affinity purified goat anti-human β2GPI in 10% normal plasma (as a source for β2GPI protein and buffering condition).

## Myristate-KKKKKRFSFKKSFKLSGFSFKKNKKK (SEQUENCE ID NO. 2)-(biotin) [NST302]
[1]; FIG. 5a
  effect on procoagulant effect of apoptotic cells: fully reversing
[1]; apoptotic cells
  increase of clotting time by a factor: 2
Apoptotic hepatocytes; animals injected with NST302 only
  staining in normal hepatocytes: never observed
Apoptotic hepatocytes; intravenous, 5 μM, avidin biotin peroxidase detection
  staining of liver in anti-Fas treated mice: observed at cytoplasma and cytoplasmatic border of apoptotic hepatocytes
Cardiolipin (CL); CL coated ELISA wells
  concentration at which binding to CL reached saturation: about 0.3 μM
Cardiolipin (CL); Lupus plasma from Gradipore
  concentration from which displacement of Lupus plasma binding to CL starts: 0.1 µM
  concentration of maximum effect of displacement of Lupus plasma from CL: 2.5 µM
[2]; apoptotic cells
  binding intensity (FITC mean value) compared with NST301: higher binding intensity
[2]; early apoptotic cells, FIG. 3b
  binding intensity: ratio of FITC mean value of apoptotic cells to that of control cells: 9 fold
[3]; 10% normal plasma
  concentration of complete inhibition of anti β2GPI binding to CL: 50 µM
  concentrations giving significant displacement of anti β2GPI from CL: 0.1 to 50 µM
[3]; FIG. 6c
  inhibition of anti β2GPI binding to CL: Complete inhibition
